Measurements published in article PMC12615753, “Glutathione as a taste modulator: molecular mechanisms of interaction with umami and sweet taste receptors” (Food Chemistry: Molecular Sciences, 2025).

Target: T1, hTAS1R2/rTAS1R3 (UniProt Q8TE23+Q923K1)
T1 construct: The cDNA coding region of rTAS1R3 was synthesized with optimized-codon usage for human expression; expressed in transfected cells
T1 sequence (Q8TE23 20-839): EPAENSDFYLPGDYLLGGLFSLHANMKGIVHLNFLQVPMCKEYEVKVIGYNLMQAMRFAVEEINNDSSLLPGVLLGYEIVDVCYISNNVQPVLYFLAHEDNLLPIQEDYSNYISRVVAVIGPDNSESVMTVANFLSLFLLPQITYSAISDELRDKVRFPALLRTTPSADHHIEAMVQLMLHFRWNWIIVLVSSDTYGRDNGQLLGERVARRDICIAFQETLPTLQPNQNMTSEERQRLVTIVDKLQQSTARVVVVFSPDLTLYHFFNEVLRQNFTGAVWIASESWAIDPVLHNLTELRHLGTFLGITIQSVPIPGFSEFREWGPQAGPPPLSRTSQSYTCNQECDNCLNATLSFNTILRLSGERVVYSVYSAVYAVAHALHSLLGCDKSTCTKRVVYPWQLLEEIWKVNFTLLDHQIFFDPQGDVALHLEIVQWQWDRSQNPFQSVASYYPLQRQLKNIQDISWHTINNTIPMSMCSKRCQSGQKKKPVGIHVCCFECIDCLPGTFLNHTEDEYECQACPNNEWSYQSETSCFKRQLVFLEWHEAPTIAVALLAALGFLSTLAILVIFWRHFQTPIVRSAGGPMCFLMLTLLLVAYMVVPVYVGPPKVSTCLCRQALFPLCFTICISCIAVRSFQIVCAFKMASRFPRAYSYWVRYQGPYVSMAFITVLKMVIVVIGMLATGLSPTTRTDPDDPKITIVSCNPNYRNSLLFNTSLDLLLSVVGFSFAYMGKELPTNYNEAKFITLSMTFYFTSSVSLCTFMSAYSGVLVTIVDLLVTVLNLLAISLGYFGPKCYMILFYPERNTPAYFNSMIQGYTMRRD
T1 sequence (Q923K1 21-858): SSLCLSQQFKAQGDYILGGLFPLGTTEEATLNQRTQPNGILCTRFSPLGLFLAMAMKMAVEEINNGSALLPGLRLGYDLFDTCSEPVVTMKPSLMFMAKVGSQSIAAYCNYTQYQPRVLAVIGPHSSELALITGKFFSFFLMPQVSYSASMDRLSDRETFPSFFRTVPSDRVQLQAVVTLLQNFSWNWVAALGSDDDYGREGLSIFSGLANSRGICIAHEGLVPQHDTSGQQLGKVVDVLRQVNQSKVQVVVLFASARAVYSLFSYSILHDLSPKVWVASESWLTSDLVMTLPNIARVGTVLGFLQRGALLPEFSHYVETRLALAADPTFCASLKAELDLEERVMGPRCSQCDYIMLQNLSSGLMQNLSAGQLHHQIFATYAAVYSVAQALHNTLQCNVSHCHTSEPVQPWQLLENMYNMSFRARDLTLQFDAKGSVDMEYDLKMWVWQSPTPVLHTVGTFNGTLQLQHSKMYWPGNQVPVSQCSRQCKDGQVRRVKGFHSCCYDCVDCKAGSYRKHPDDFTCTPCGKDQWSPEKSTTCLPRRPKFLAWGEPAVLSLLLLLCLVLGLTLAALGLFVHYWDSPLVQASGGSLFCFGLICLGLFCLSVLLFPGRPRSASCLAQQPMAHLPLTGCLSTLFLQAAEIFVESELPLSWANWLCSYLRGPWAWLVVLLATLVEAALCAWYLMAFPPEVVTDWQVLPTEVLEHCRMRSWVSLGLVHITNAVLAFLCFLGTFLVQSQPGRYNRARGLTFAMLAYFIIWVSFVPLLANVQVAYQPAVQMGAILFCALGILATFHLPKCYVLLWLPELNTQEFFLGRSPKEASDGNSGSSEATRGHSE
Test: Calcium assay in transfected HEK293T/17 cells, sweet taste receptor
Format: cell-based, human, rat
Experimental: HEK293T/17 cells (ATCC CRL-11268) were seeded into clear bottom black 96-well plates coated with poly-D-lysine at a density of 32500 cells/well in 100 μL of DMEM containing 4.5 g/L glucose and supplemented with penicillin/streptomycin, 2 mM GlutaMAX and 10 % dialyzed fetal bovine serum. The plates were incubated for 24 h at 37 °C and 7.3 % CO2 in a humidified atmosphere. After incubation, using Fugene® 4 K (0.46 μL/well, Promega, Illkirch, France), the cells were transiently transfected with pcDNA3-hTAS1R1-WT (60 ng/well) or TAS1R1 mutants, pcDNA4-rTAS1R3 (60 ng/well), pcDNA3-Gα15i2 (10 ng/well), and pGP-CMV-GCaMP6s (Addgene #40753; 10 ng/well) as a genetically encoded calcium indicator. Twenty-four hours after transfection, the HEK293T/17 cells were rinsed with 100 μL of C1 buffer (130 mM NaCl, 5 mM KCl, 10 mM HEPES, 2 mM CaCl2, and 5 mM sodium pyruvate, pH 7.4). For each molecule tested, a semi-logarithmic concentration range was created consisting of seven increasing concentrations and a negative control (zero dose) made of buffer C1. Binary mixtures with different molecules were also made to study potential synergy. In this case, the concentration range was tested in C1 buffer containing the other molecules to be tested. The concentration ranges varied depending on the molecule, its solubility, and its effectiveness in activating the receptor. All the solutions were made on the day of the test to prevent any oxidation of the compounds. If needed, the pH of each solution was adjusted by to pH 7.4 by adding NaOH. After 20 s of basal fluorescence calcium measurement, the cells were stimulated via automatic injection of a range of compounds in eight wells, and the signal emission was recorded for an additional 70 s, via a FlexStation 3® fluorometric microplate reader (Molecular Devices, San Jose, CA, USA). As a control, molecules were also tested on mock-transfected cells with the empty vector. The emitted fluorescence was measured at a wavelength of 510 nm after excitation at 488 nm. Each measurement was performed in duplicate on the same plate, and the experiments were carried out at least four times. Kinetic data were acquired via SoftMax Pro 5.4.6 software (Molecular Devices). For each well, the decrease in the raw fluorescence as the relative fluorescence changed was calculated as ΔF/F0. Replicates were averaged for the wells subjected to the same stimuli, the background signal was subtracted, and the fluorescence changes in mock-transfected cells were subtracted. The half-maximal effective concentration (EC50) and maximal signal amplitude (max ∆F/F0) were calculated via non-linear regression of the sigmoidal function four-parameter logistic equation [f(x) = min + (max − min)/(1 + (x/EC50)^nH)] via SigmaPlot 15.0 software (Grafiti LLC, Palo Alto, CA, USA). […]

| EC50 (WT, sucralose alone, Fig. 4A) [µM] | Structure (SMILES) | EC50 (agonist alone, Fig. 2) [µM] | fold decrease in the EC50 value of sucralose (in the presence of 10 mM GSH) [fold] |
| --- | --- | --- | --- |
| – | N[C@@H](CCC(=O)N[C@@H](CS)C(=O)NCC(=O)O)C(=O)O [GSH, γ-L-glutamyl-L-cysteinyl-glycine] | 4060 ± 2510 | 3 |
| 325 ± 140 | OC[C@H]1O[C@H](O[C@]2(CCl)O[C@H](CCl)[C@@H](O)[C@@H]2O)[C@H](O)[C@@H](O)[C@H]1Cl [sucralose, reference compound] | 251 ± 128 | – |
